Data: patent publication US9937250B2, “Immunogenic tumor associated stromal cell antigen peptides and methods of their use” (University of Pittsburgh—Of the Commonwealth System of …, priority 2011, dated 2018)
Where no end group is shown, it is not given here.

Key:
[1] = test system: CD8+ T cells from HLA-A2+ normal donors or HLA-A2+ melanoma patients; experiment: In vitro sensitization of human CD8+ T cells with TASA peptide-pulsed autologous DC, IFN-γ ELISA against peptide-pulsed T2 cells; format: cell-based
Method: The indicated peptides were pulsed onto autologous DC and used to prime and boost CD8^+ T cells isolated from the peripheral blood of eight normal HLA-A2^+ donors or ten HLA-A2^+ patients with melanoma. Seven days after the primary in vitro sensitization (IVS) (melanoma patients) or a secondary IVS boost (normal donors), T cells were analyzed for their reactivity against HLA-A2^+ T2 cells pulsed with the relevant peptide vs. the negative control HIV-nef190-198 peptide. After 24 hours of co-culture, cell-free supernatants were analyzed for levels of secreted IFN-γ using a commercial ELISA. Data are reported in Bar and Whisker plots, with p-values provided for paired pre- versus post-IVS data from normal donors and patients. In addition, p<0.05 was detected for MEL-Post versus ND-Post for the following peptides: DLK1 (309), NG2 (770), NG2 (2238), PDGFRβ (891) and RGS5 (5).
In vitro assessment of human CD8^+ T cell responses against TASA- or TAA-derived peptides. Peripheral blood mononuclear cells (PBMC) were obtained by venipuncture or leukapheresis from HLA-A2^+ normal donors or HLA-A2^+ melanoma patients with written consent under IRB-approved protocols (Table 3). CD8^+ T cells were then isolated by MACS (Miltenyi Biotec, Auburn, Calif.) and either not stimulated or stimulated with autologous, TASA peptide-pulsed DC as previously described (Tatsumi et al., Cancer Res., 63:4481-4489, 2003). Normal donor T cells were stimulated with TASA peptide-pulsed DC twice on a weekly schedule, with responder T cells harvested for analysis of their specificity 5 days after the booster stimulation (i.e. day 12 of T cell-DC co-culture). Melanoma patient CD8^+ T cells were analyzed after a single round of stimulation with TASA peptide-pulsed, autologous DC (i.e. day 5 of T cell-DC co-culture) as indicated. For DC-based stimulations, DC were pulsed with an equimolar (1 μM each) pool of the TASA peptides (Table 4) for 4 h at 37° C. at 5% CO2 tension. These antigen-loaded DC were then used to stimulate autologous CD8^+ T cells at a T cell-to-DC ratio of 10:1 to generate a bulk population of responder T cells. T cells were maintained in IMDM media supplemented with 10% human AB serum, 100 U/ml penicillin, […], 10 mM L-glutamine and MEM non-essential amino acids (all reagents from Invitrogen, except human AB serum that was purchased from Sigma-Aldrich, St. Louis, Mo.). Responder CD8^+ T cells were analyzed for reactivity against control (HLA-A2^+) T2 cells or T2 cells pulsed with individual TASA or TAA peptides (1 μM for 4 h at 37° C.) at a CD8^+ T cell-to-T2 cell ratio of 5:1 for 24 h. Harvested cell-free supernatants were consequently assessed for hIFN-γ content using a specific ELISA (BD Biosciences, San Diego, Calif.) with a lower detection limit of 4.7 pg/ml.
CD8^+ T cells from HLA-A2^+ normal donors or HLA-A2^+ melanoma patients recognize TASA-derived peptides in vitro. To assess whether the TASA-derived peptides identified in the HHD tumor model were also capable of being recognized by human CD8^+ T cells, IVS was performed using T cells isolated from the peripheral blood of HLA-A2^+ donors or HLA-A2^+ patients with melanoma. DC were pulsed with peptides derived from a given TASA for 4 h at 37° C., then washed and used as stimulator cells for autologous CD8^+ T cells. In cases where more than one peptide existed for a given protein, DC were pulsed with an equimolar (10 μM) mixture of each peptide. Two rounds of IVS using TASA for normal donors and a single-round of IVS using TASA for melanoma patients was applied. HLA-A2^+ normal donors (FIG. 4; Tables 4, 5A and 5B) and melanoma patients (FIG. 4; Tables 4, 5A and 5B) were each capable of recognizing many of the TASA-derived peptides.

[2] = test system: MC38 colon carcinoma; experiment: MC38 protection (prophylactic vaccination) model; format: in vivo, HHD mice; set-up: key to Anti-tumor efficacy in MC38 protection model: +/-, p < 0.05 versus DC only for 2 consecutive time points; - not significant at any time point analyzed; conditions: for Anti-tumor efficacy in MC38 protection model: DC.IL12 pulsed with a pool of 1 or more peptides derived from the indicated TBVA, vaccination d-14, d-7; for Protection against HLA-A2neg MC38 tumor challenge: immunization days -14 and -7, tumor challenge day 0 (FIG. 9B)
Description: FIGS. 9A-9B show a series of graphs illustrating induction of specific/protective CD8^+ T cells reactive against TASA as a consequence of DC/peptide-based vaccination. In FIG. 9A, HHD mice (five animals/cohort) were vaccinated twice (d-14, d-7) subcutaneously with PBS or with isologous DC.IL12 pulsed with PBS or synthetic peptides (Table 6) derived from the indicated TASA. In cases where more than 1 peptide was identified for a given target antigen, an equimolar pool of the indicated peptides (each 10 μM) was pulsed onto DC.IL12 and used for vaccination in the relevant cohort. One week after the second immunization, spleens were harvested and splenic CD8^+ T cells isolated using MACS-beads (Miltenyi). T cells were stimulated in vitro for 48 h using the HLA-A2^+ T2 cell line pulsed with relevant TASA vs. irrelevant HIV-nef190-198 ([…]; ref. 24) peptides. Cell-free supernatants were then recovered and IFN-γ levels by ELISA. Data are reported as mean+/−SD for triplicate ELISA determinations, and are representative of 3 independent experiments performed. *p<0.05 vs. HIV-nef control peptide responses. In FIG. 9B, HHD mice were vaccinated twice (days −14 and −7; right flank) subcutaneously with PBS or with isologous DC.IL12 pulsed with PBS or synthetic TASA peptides as indicated in FIG. 1A. In cases where more than 1 peptide is identified for a given target antigen, an equimolar pool of the indicated peptides (each 10 μM) was pulsed onto DC.IL12 and used for vaccination in the relevant cohort. One week after the booster vaccine (i.e. day zero), animals were challenged subcutaneously on their left flank with 2×10^6 MC38 colon carcinoma cells. Tumor growth was then monitored every 3-4 days through day 24. All data represent mean tumor area (in mm^2)+/−SD determined from 5 mice/cohort, and are representative of three independent experiments performed. *p<0.05 versus DC only on the indicated days.
Vaccine Experiments. For prophylactic experiments, HHD mice were immunized subcutaneously on the right flank with 100 μl PBS or PBS containing 10^6 syngenic DC.IL12 cells that had been untreated or pre-pulsed for 4 h at 37° C. with 10 μM synthetic peptide(s). Immunizations occurred on days −14 and −7, with mice subsequently receiving injections of MC38 (2×10^6) tumor cells in the left flank on d0. In all cases, treatment groups contained 5 mice per cohort. For analysis of tumor cellular composition in repeat experiments, MC38 tumors were isolated by surgical resection 10 days after tumor inoculation and prepared for fluorescence imaging, as described below. […] Mice were then untreated or treated with control, syngenic DC.IL12 or DC.IL12 (10^6 cells injected subcutaneously in the left flank on days 7 and 14) pulsed with synthetic TBVA peptides. In some assays, as indicated, in vivo antibody depletions (on days 6, 13 and 20 post-tumor inoculation to assess early involvement or on days 60 and 67 or 180 and 187 to assess late involvement) of protective CD4^+ T cells or CD8^+ T cells were performed and monitored as previously described (Zhao et al., Mol Ther., 19:805-814, 2011). In all cases, tumor size (area) was monitored every 3-4 days and is reported as mean+/−SD in mm^2.
The DLK1, EphA2, HBB, NG2, NRP1, NRP2, PDGFRβ, PSMA, RGS5, TEM1, VEGFR1 and VEGFR2 antigens were expressed in situ by blood vessel cells in the MC38 colon carcinoma TME (FIG. 14). Protection of HHD mice against a challenge with HLA-A2^neg MC38 tumor cells injected subcutaneously on day zero was assayed with immunization with TBVA-derived peptides on days −14 and −7. […]

**Q.** What does the source list for “VEGFR1: VEGFR1-derived peptide 770-778 pulsed onto DC or DC.IL12 (TLFWLLLTL; listed as Homo sapiens)”?
**A.** Specific CD8+ T cell Production of IFN-γ in Response to TASA ([1]; donor Mel4, melanoma patient): + (Human responses were designated as + if T cell reactivity against T2 cells presenting the indicated peptide (IFN-γ ELISA) was >30 pg/ml and more than 2 fold higher than reactivity versus T2 cells pulsed with the negative control HIV-nef190-198 peptide); Specific CD8+ T cell Production of IFN-γ in Response to TASA ([1]; donor Mel6, melanoma patient): + (Human responses were designated as + if T cell reactivity against T2 cells presenting the indicated peptide (IFN-γ ELISA) was >30 pg/ml and more than 2 fold higher than reactivity versus T2 cells pulsed with the negative control HIV-nef190-198 peptide); Specific CD8+ T cell Production of IFN-γ in Response to TASA ([1]; donor Mel7, melanoma patient): + (Human responses were designated as + if T cell reactivity against T2 cells presenting the indicated peptide (IFN-γ ELISA) was >30 pg/ml and more than 2 fold higher than reactivity versus T2 cells pulsed with the negative control HIV-nef190-198 peptide); Specific CD8+ T cell Production of IFN-γ in Response to TASA ([1]; donor ND5, normal donor): + (Human responses were designated as + if T cell reactivity against T2 cells presenting the indicated peptide (IFN-γ ELISA) was >30 pg/ml and more than 2 fold higher than reactivity versus T2 cells pulsed with the negative control HIV-nef190-198 peptide); Anti-tumor efficacy in MC38 protection model [2]: +/- (+/-, p < 0.05 versus DC only for 2 consecutive time points); Protection against HLA-A2neg MC38 tumor challenge [2]: minimal protection

**Q.** What does the source list for “PDGFRβ: PDGFRβ-derived peptide 890-898 pulsed onto DC or DC.IL12 (ILLWEIFTL; listed as Homo sapiens)”?
**A.** Specific CD8+ T cell Production of IFN-γ in Response to TASA ([1]; donor Mel8, melanoma patient): + (Human responses were designated as + if T cell reactivity against T2 cells presenting the indicated peptide (IFN-γ ELISA) was >30 pg/ml and more than 2 fold higher than reactivity versus T2 cells pulsed with the negative control HIV-nef190-198 peptide); Specific CD8+ T cell Production of IFN-γ in Response to TASA ([1]; donor ND2, normal donor): + (Human responses were designated as + if T cell reactivity against T2 cells presenting the indicated peptide (IFN-γ ELISA) was >30 pg/ml and more than 2 fold higher than reactivity versus T2 cells pulsed with the negative control HIV-nef190-198 peptide); Specific CD8+ T cell Production of IFN-γ in Response to TASA ([1]; donor ND4, normal donor): + (Human responses were designated as + if T cell reactivity against T2 cells presenting the indicated peptide (IFN-γ ELISA) was >30 pg/ml and more than 2 fold higher than reactivity versus T2 cells pulsed with the negative control HIV-nef190-198 peptide); Protection against HLA-A2neg MC38 tumor challenge [2]: effective in preventing HLA-A2^neg MC38 tumor establishment or they resulted in the regression of tumors

**Q.** How did the “Specific CD8+ T cell Production of IFN-γ in Response to TASA” value (shortened to “Specific CD8+ T cell Production of IFN-γ”) ([1]; donor Mel1, melanoma patient) turn out when “NRP2: equimolar pool of the three NRP2-derived peptides (214-222, 328-336, 436-444), pulsed onto DC or DC.IL12 (chain 1 DIWDGIPHV; chain 2 YLQVDLRFL; chain 3 NMLGMLSGL; also: equimolar pool of three peptides; listed as Homo sapiens)” was run?
**A.** + (Human responses were designated as + if T cell reactivity against T2 cells presenting the indicated peptide (IFN-γ ELISA) was >30 pg/ml and more than 2 fold higher than reactivity versus T2 cells pulsed with the negative control HIV-nef190-198 peptide)

**Q.** And the “Specific CD8+ T cell Production of IFN-γ” value ([1]; donor Mel2, melanoma patient)?
**A.** + (Human responses were designated as + if T cell reactivity against T2 cells presenting the indicated peptide (IFN-γ ELISA) was >30 pg/ml and more than 2 fold higher than reactivity versus T2 cells pulsed with the negative control HIV-nef190-198 peptide)

**Q.** What about the “Specific CD8+ T cell Production of IFN-γ” value ([1]; donor Mel4, melanoma patient) of the same substance?
**A.** + (Human responses were designated as + if T cell reactivity against T2 cells presenting the indicated peptide (IFN-γ ELISA) was >30 pg/ml and more than 2 fold higher than reactivity versus T2 cells pulsed with the negative control HIV-nef190-198 peptide)

**Q.** What about the “Specific CD8+ T cell Production of IFN-γ” value ([1]; donor Mel5, melanoma patient) of the same substance?
**A.** + (Human responses were designated as + if T cell reactivity against T2 cells presenting the indicated peptide (IFN-γ ELISA) was >30 pg/ml and more than 2 fold higher than reactivity versus T2 cells pulsed with the negative control HIV-nef190-198 peptide)

**Q.** What about the “Anti-tumor efficacy in MC38 protection model” value [2] of the same substance?
**A.** -

**Q.** What about the “Protection against HLA-A2neg MC38 tumor challenge” value [2] of the same substance?
**A.** minimal protection

**Q.** With “PSMA: PSMA-derived peptide 441-450 pulsed onto DC or DC.IL12 (LLQERGVAYI; listed as Homo sapiens)” as the substance, how does the “Specific CD8+ T cell Production of IFN-γ” value ([1]; donor Mel4, melanoma patient) read?
**A.** + (Human responses were designated as + if T cell reactivity against T2 cells presenting the indicated peptide (IFN-γ ELISA) was >30 pg/ml and more than 2 fold higher than reactivity versus T2 cells pulsed with the negative control HIV-nef190-198 peptide)

**Q.** What about the “Specific CD8+ T cell Production of IFN-γ” value ([1]; donor Mel6, melanoma patient) of the same substance?
**A.** + (Human responses were designated as + if T cell reactivity against T2 cells presenting the indicated peptide (IFN-γ ELISA) was >30 pg/ml and more than 2 fold higher than reactivity versus T2 cells pulsed with the negative control HIV-nef190-198 peptide)

**Q.** And the “Anti-tumor efficacy in MC38 protection model” value [2]?
**A.** -

**Q.** And the “Protection against HLA-A2neg MC38 tumor challenge” value [2]?
**A.** minimal protection
